How the values were obtained:
Pneumocystis carinii = experiment: Treatment of Pneumocystis carinii pneumonia in Sprague-Dawley rats (extent of disease by histologic score); type: in vivo, male Sprague-Dawley rats; details: for Extent of Disease by Histologic Score: number of animals with score 0.5 / Extent of Disease by Histologic Score: number of animals with score 1 / Extent of Disease by Histologic Score: number of animals with score 2 / Extent of Disease by Histologic Score: number of animals with score 3 / Extent of Disease by Histologic Score: number of animals with score 4: 14 days; for Extent of Disease by Histologic Score: number of animals with score 0.5 / Extent of disease by histologic score (combined): number of animals in scoring group 0.5: 0.5 = <10 cysts found per 2 sections; for Extent of Disease by Histologic Score: number of animals with score 1 / Extent of disease by histologic score (combined): number of animals in scoring group 1: 1 = scattered cysts, <5% of lung involved; for Extent of Disease by Histologic Score: number of animals with score 2 / Extent of disease by histologic score (combined): number of animals in scoring group 2: 2 = scattered cysts; for Extent of Disease by Histologic Score: number of animals with score 2: 5-10% lung involved or small foci of infection; for Extent of Disease by Histologic Score: number of animals with score 3 / Extent of disease by histologic score (combined): number of animals in scoring group 3: 3 = scattered cysts; for Extent of Disease by Histologic Score: number of animals with score 3: 10-50% of lung involved with some intense areas of infection; for Extent of Disease by Histologic Score: number of animals with score 4: 4 = >50% of lung involved with many intense areas of focal infection; for Extent of disease by histologic score (combined): number of animals in scoring group 0.5 / Extent of disease by histologic score (combined): number of animals in scoring group 1 / Extent of disease by histologic score (combined): number of animals in scoring group 2 / Extent of disease by histologic score (combined): number of animals in scoring group 3 / Extent of disease by histologic score (combined): number of animals in scoring group 4: Table XII composite; for Extent of disease by histologic score (combined): number of animals in scoring group 2: 5-10% of lung involved; for Extent of disease by histologic score (combined): number of animals in scoring group 3: 10-50% of lung involved; for Extent of disease by histologic score (combined): number of animals in scoring group 4: 4 = >50% of lung involved; for Efficacy in treating PCP compared with related compounds of the series: effect of chain length or substituent
Procedure: Induction and Treatment Of Pneumocystis Carinii in Sprague-Dawley Rats
Male Sprague-Dawley rats, barrier raised, non-certified virus free, weighing 150-200g were obtained from Hilltop Laboratories and housed individually. Animals were begun on a low (8%) protein diet (ICN Biomedicals, Cincinnati, OH) and drinking water containing tetracycline (0.5 mg/ml) and dexamethasone (1.0 μg/ml) immediately upon arrival. This treatment was given for the next 8 weeks, monitoring fluid intake daily and weighing animals weekly. Dilutions of the drinking solution were made when animals consumed too much fluid so as to prevent cortisone poisoning. At the beginning of the sixth week, animals were divided into groups of 8 animals each and the test compounds were administered daily by i.v. injection at a dose of 10 mg/kg, unless otherwise noted, for the next 14 days.
Animals were sacrificed at the end of the eighth week by chloroform inhalation and the left lung was removed aseptically and placed in sterile Hank's balanced salts solution without calcium or magnesium (HBSS-) for the ground tissue procedure. The right lung was inflated in situ with 10% […] and removed for histologic examination GMS staining. […]

[1] = Toxicity of amidines in rats (standard laboratory procedure); type: in vivo
Procedure: Compounds having the structure represented by Formula I were synthesized in accordance with the appropriate procedures discussed previously. The reaction schemes shown in Charts I-III specifically identify the methodology used to synthesize the compounds of the respective examples. The compounds which were synthesized are shown in Table IA and the elemental analysis and melting points of the compounds are shown in Table IB. Most of the compounds were tested for toxicity in rats using standard laboratory procedure and the results of that toxicity testing are shown in Table XII. The compounds of Examples 31, 32, and 34 were not synthesized but may be synthesized in the general manner discussed previously.

[2] = 10 mg/kg unless otherwise noted

SMILES | Extent of Disease by Histologic Score: number of animals with score 0.5 (Pneumocystis carinii; 5 mg/kg i.v. daily) | Extent of Disease by Histologic Score: number of animals with score 1 (Pneumocystis carinii; 5 mg/kg i.v. daily) | Extent of Disease by Histologic Score: number of animals with score 2 (Pneumocystis carinii; 5 mg/kg i.v. daily) | Extent of Disease by Histologic Score: number of animals with score 3 (Pneumocystis carinii; 5 mg/kg i.v. daily) | Extent of Disease by Histologic Score: number of animals with score 4 (Pneumocystis carinii; 5 mg/kg i.v. daily) | Extent of disease by histologic score (combined): number of animals in scoring group 0.5 (Pneumocystis carinii; tested at 5 mg/kg) | Extent of disease by histologic score (combined): number of animals in scoring group 1 (Pneumocystis carinii; tested at 5 mg/kg) | Extent of disease by histologic score (combined): number of animals in scoring group 2 (Pneumocystis carinii; tested at 5 mg/kg) | Extent of disease by histologic score (combined): number of animals in scoring group 3 (Pneumocystis carinii; tested at 5 mg/kg) | Extent of disease by histologic score (combined): number of animals in scoring group 4 (Pneumocystis carinii; tested at 5 mg/kg) | Extent of Disease by Histologic Score: number of animals with score 0.5 (Pneumocystis carinii; 10 mg/kg i.v. daily) | Extent of Disease by Histologic Score: number of animals with score 1 (Pneumocystis carinii; 10 mg/kg i.v. daily) | Extent of Disease by Histologic Score: number of animals with score 2 (Pneumocystis carinii; 10 mg/kg i.v. daily) | Extent of Disease by Histologic Score: number of animals with score 3 (Pneumocystis carinii; 10 mg/kg i.v. daily) | Extent of Disease by Histologic Score: number of animals with score 4 (Pneumocystis carinii; 10 mg/kg i.v. daily) | Extent of disease by histologic score (combined): number of animals in scoring group 0.5 (Pneumocystis carinii; 10 mg/kg) | Extent of disease by histologic score (combined): number of animals in scoring group 1 (Pneumocystis carinii; 10 mg/kg) | Extent of disease by histologic score (combined): number of animals in scoring group 2 (Pneumocystis carinii; 10 mg/kg) | Extent of disease by histologic score (combined): number of animals in scoring group 3 (Pneumocystis carinii; 10 mg/kg) | Extent of disease by histologic score (combined): number of animals in scoring group 4 (Pneumocystis carinii; 10 mg/kg) | other results
COc1cc(C(=N)N)ccc1OCCCOc1ccc(C(=N)N)cc1OC [Example 6] | 7 animals | 1 animals | 0 animals | 0 animals | 0 animals | 7 animals | 1 animals | 0 animals | 0 animals | 0 animals | – | – | – | – | – | – | – | – | – | – | Efficacy in treating PCP compared with control (Pneumocystis carinii; compound at 5 mg/kg): significantly better, at one half the dose, than the control; Toxicity of amidines: Effect ([1]; rat, in vivo, 5 mg/kg): None
N=C(N)c1ccc(NCCCCNc2ccc(C(=N)N)cc2)cc1 [Example 8] | – | – | – | – | – | – | – | – | – | – | 3 animals | 1 animals | 0 animals | 0 animals | 0 animals | 3 animals | 1 animals | 0 animals | 0 animals | 0 animals | Efficacy in treating PCP compared with pentamidine (Pneumocystis carinii; [2]): better than or equal to pentamidine; Deaths by day 7 ([1]; rat, in vivo): 3 deaths
COc1cc(C(=N)N)ccc1OCCCCOc1ccc(C(=N)N)cc1OC [Example 11] | 3 animals | 4 animals | 1 animals | 0 animals | 0 animals | 3 animals | 4 animals | 1 animals | 0 animals | 0 animals | – | – | – | – | – | – | – | – | – | – | Efficacy in treating PCP compared with control (Pneumocystis carinii; compound at 5 mg/kg): significantly better, at one half the dose, than the control; Toxicity of amidines: Effect ([1]; rat, in vivo, 5 mg/kg): None
N=C(N)c1ccc(OCCCCCOc2ccc(C(=N)N)cc2[N+](=O)[O-])c([N+](=O)[O-])c1 [Example 13] | 3 animals | 2 animals | 3 animals | 0 animals | 0 animals | 0 animals | 2 animals | 4 animals | 2 animals | 0 animals | – | – | – | – | – | – | – | – | – | – | Toxicity of amidines: Effect ([1]; dose as in value, else not given in Table XIII (10 mg/kg test dose)): Acute toxicity, death at 10 mg/kg
c1cc(C2=NCCN2)ccc1OCCCCCOc1ccc(C2=NCCN2)cc1 [Example 30] | – | – | – | – | – | – | – | – | – | – | 5 animals | 3 animals | 0 animals | 0 animals | 0 animals | 5 animals | 3 animals | 0 animals | 0 animals | 0 animals | Efficacy in treating PCP compared with pentamidine (Pneumocystis carinii; [2]): comparable to or perhaps slightly better than pentamidine
N=C(N)c1ccc(NCCNc2ccc(C(=N)N)cc2N)c(N)c1 [Example 33] | – | – | – | – | – | – | – | – | – | – | 0 animals | 0 animals | 4 animals | 3 animals | 1 animals | 0 animals | 0 animals | 4 animals | 3 animals | 1 animals | Efficacy in treating PCP compared with control (Pneumocystis carinii; [2]): better than the control; Efficacy in treating PCP compared with pentamidine (Pneumocystis carinii; [2]): worse than pentamidine
N=C(N)c1ccc(NCCCNc2ccc(C(=N)N)cc2N)c(N)c1 [Example 36] | – | – | – | – | – | – | – | – | – | – | 1 animals | 4 animals | 2 animals | 0 animals | 0 animals | 1 animals | 4 animals | 2 animals | 0 animals | 0 animals | Efficacy in treating PCP compared with related compounds of the series (Pneumocystis carinii): better than the nitro substituted compounds
N=C(N)c1ccc(NCCCCNc2ccc(C(=N)N)cc2N)c(N)c1 [Example 37] | – | – | – | – | – | – | – | – | – | – | 0 animals | 4 animals | 3 animals | 1 animals | 0 animals | 0 animals | 4 animals | 3 animals | 1 animals | 0 animals | Efficacy in treating PCP compared with related compounds of the series (Pneumocystis carinii): better than the nitro substituted compounds
N=C(N)c1ccc(NCCCCCCNc2ccc(C(=N)N)cc2)cc1 [Example 39] | – | – | – | – | – | – | – | – | – | – | 2 animals | 1 animals | 0 animals | 0 animals | 0 animals | – | – | – | – | – | –
c1cc(C2=NCCN2)ccc1OCCCCOc1ccc(C2=NCCN2)cc1 [Example 40] | – | – | – | – | – | – | – | – | – | – | 1 animals | 2 animals | 3 animals | 1 animals | 0 animals | 1 animals | 2 animals | 3 animals | 1 animals | 0 animals | Efficacy in treating PCP compared with control (Pneumocystis carinii; [2]): significantly better than the control
